From ChEMBL document CHEMBL1201862, “PubChem BioAssay data set” (2004) come the findings set out here.

The structures appear in SMILES notation. Values joined by “and” are separate entries in the source; they are usually repeats but may differ in a detail not shown here. Identical values can stand only once.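 All cell lines were grown in 96-well plates and treated with compound for 48 hours. GI50 is the concentration that inhibits growth by half.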 Active and inactive are the calls of the source. Cut-off read from the data, not from the text of the source: active = GI50 up to about 1.1 µM and inactive = higher.

Holding throughout (test): NCI anticancer screen, dose series, 48 h
For assay [1], the system named is HOP-92.
The test system of assay [2] is U-251.
Assay [3] relates to NCI-H522.
In assay [4] the test system is DU-145.
Assay [5] concerns K562.
The test system of assay [6] is M14.
Assay [7] has as its system NCI-H226.
For assay [8], the system named is SNB-19.
For assay [9], the system named is OVCAR-3.
For assay [10], the system named is SW-620.
Assay [11] relates to COLO 205.
In assay [12] the test system is SN12C.
The test system of assay [13] is EKVX.
For assay [14], the system named is HOP-62.
Assay [15] has as its system RXF 393.
Assay [16] concerns A549.
For assay [17], the system named is MOLT-4.
Assay [18] has as its system SK-MEL-28.
The subject of assay [19] is SF-268.
Assay [20] has as its system HCC 2998.

For the compound `O=C(NNc1ccccc1)c1ccc(Cl)c(Cl)c1`, the GI50 was > 78.9 µM (inactive) in assay [1]; 18.2 µM (inactive) in assay [2]; 0.574 µM (active) in assay [3]; 26.9 µM (inactive) in [4]; 0.0281 µM (active) in assay [5]; 0.324 µM (active) in assay [6]. Moreover, the GI50 was 29.9 µM (inactive) in [7]; 25.8 µM (inactive) in assay [8]; 4.7 µM (inactive) in assay [9]; 0.108 µM (active) in assay [10]; 0.169 µM (active) in assay [11]; 27.9 µM (inactive) in [12]. Moreover, the GI50 in assay [13] is 4.39 µM (inactive); in [14], 54.6 µM (inactive); in assay [15], 19.3 µM (inactive); in assay [16], 6.59 µM (inactive); in assay [17], 21.5 µM (inactive); in assay [18] it was > 100 µM (inactive). Also, the GI50 in [19] is 1.45 µM (inactive); in assay [20] it was 2.31 µM (inactive).

For the compound `c1ccc(C2C(=P(c3ccccc3)(c3ccccc3)c3ccccc3)P=PC2[P+](c2ccccc2)(c2ccccc2)c2ccccc2)cc1.c1ccc([B-](c2ccccc2)(c2ccccc2)c2ccccc2)cc1` (stereo not given), the GI50 is 0.555 µM (active) in assay [1]; 0.176 µM (active) in assay [2]; 0.424 µM (active) in assay [3]; 0.5 µM (active) in assay [4]; 0.173 µM (active) in assay [5]; 0.286 µM (active) in assay [6]. Moreover, the GI50 in assay [7] is 1.11 µM (active); in assay [8], 0.313 µM (active); in assay [9], 0.579 µM (active); in assay [10] it was 0.767 µM (active); in [11], 0.202 µM (active); in [12], 0.507 µM (active). Also, the GI50 is 4.79 µM (inactive) in assay [13]; 0.841 µM (active) in assay [14]; 0.285 µM (active) in [15]; 0.422 µM (active) in [16]; 1.63 µM (inactive) in assay [17]; 1.85 µM (inactive) in [18]. Further, the GI50 in [19] is 0.695 µM (active); in assay [20] it was 0.593 µM (active).

`COc1ccc(C2Oc3c(OC)cc(CCCO)cc3C2CO)cc1OC` (stereo not given): the GI50 in [1] was 56.5 µM (inactive); in assay [2], > 100 µM (inactive); in assay [3], 86.7 µM (inactive); in assay [4], > 100 µM (inactive); in assay [5] it was 20.6 µM (inactive) and 38.5 µM (inactive); in assay [6] it was > 100 µM (inactive). Moreover, the GI50 in assay [7], in [8], in [9], in assay [10], in assay [11] and in assay [12] was > 100 µM (inactive) in each case. Moreover, the GI50 in [13] was 61.4 µM (inactive) and 39.9 µM (inactive); in assay [14] it was > 100 µM (inactive); in assay [15] it was > 100 µM (inactive); in [16] it was 88.1 µM (inactive) and 80 µM (inactive); in assay [17] it was 42.5 µM (inactive) and 26.9 µM (inactive); in [18] it was 74 µM (inactive). Moreover, the GI50 in [19] and in assay [20] was > 100 µM (inactive) in each case.

`O=C(CCCN1CCC2(CC1)/C(=N/C1CCCCC1)NC(=O)N2c1ccccc1)c1ccc(F)cc1`: the GI50 in assay [1] is 17.1 µM (inactive); in assay [2], 33.1 µM (inactive); in assay [3], 24.7 µM (inactive); in assay [4], 41.2 µM (inactive); in assay [5] it was 29.8 µM (inactive); in assay [6], 17.6 µM (inactive). The GI50 in [7] was 14.9 µM (inactive); in assay [8], > 100 µM (inactive); in [9] it was 11.6 µM (inactive); in [10] it was > 100 µM (inactive); in assay [11], 16.1 µM (inactive); in assay [12], 18.4 µM (inactive). Also, the GI50 in assay [13] was 29.8 µM (inactive); in assay [14] it was 20.9 µM (inactive); in assay [15], 39.5 µM (inactive); in assay [16] it was 44.4 µM (inactive); in assay [17], 21.9 µM (inactive); in assay [18], 18.6 µM (inactive). The GI50 in assay [19] was 19 µM (inactive); in assay [20], 20.6 µM (inactive).

Take `O=C1c2cc([N+](=O)[O-])sc2C(=O)c2cc([N+](=O)[O-])sc21`: the GI50 was 1.85 µM (inactive) in assay [1]; 1.79 µM (inactive) in [2]; 1.44 µM (inactive) in assay [3]; 10.3 µM (inactive) in [4]; 0.432 µM (active) in assay [5]; 3.78 µM (inactive) in assay [6]. Also, the GI50 in assay [7] is 12.3 µM (inactive); in [8], 3.85 µM (inactive); in assay [9], 2.41 µM (inactive); in [10] it was 1.72 µM (inactive); in [11] it was 2.02 µM (inactive); in assay [12], 2.8 µM (inactive). The GI50 in [13] is 3.13 µM (inactive); in [14] it was 6.21 µM (inactive); in assay [15] it was 6.03 µM (inactive); in assay [16], 20.2 µM (inactive); in assay [17] it was 2.84 µM (inactive); in assay [18], 3.23 µM (inactive). The GI50 is 3.63 µM (inactive) in [19] and 3.05 µM (inactive) in assay [20].

On to `Cc1cccc2c(N)c3cccc(C(=O)NCC[N+](C)(C)Cc4ccccc4[N+](=O)[O-])c3nc12`, for which the GI50 is 10 µM (inactive) in assay [1]; 5 µM (inactive) in [2]; 4.94 µM (inactive) in assay [3]; 8.69 µM (inactive) in [4]; 4.72 µM (inactive) in assay [5]; 9.62 µM (inactive) in assay [6]. Also, the GI50 was 3.94 µM (inactive) in [7]; 14.1 µM (inactive) in assay [8]; 18 µM (inactive) in [9]; 7.6 µM (inactive) in [10]; 9.02 µM (inactive) in [11]; 2.11 µM (inactive) in assay [12]. The GI50 in assay [13] was 31.5 µM (inactive); in assay [14], 7.48 µM (inactive); in assay [15], 9.64 µM (inactive); in assay [16], 2.24 µM (inactive); in assay [17], 1.09 µM (active); in assay [18], 29.7 µM (inactive). Besides, the GI50 is 5.12 µM (inactive) in assay [19] and 9.06 µM (inactive) in [20].

Take `O=c1[nH]cc(NCCCl)c(=O)[nH]1`: the GI50 in assay [1], in [2], in assay [3], in assay [4], in assay [5] and in assay [6] was > 100 µM (inactive) in each case. For the same compound, the GI50 in assay [7], in [8], in assay [9], in assay [10], in [11] and in [12] was > 100 µM (inactive) each time. The GI50 in assay [13], in assay [14], in assay [15], in [16], in assay [17] and in assay [18] was > 100 µM (inactive) in each case. For the same compound, the GI50 in assay [19] and in [20] was > 100 µM (inactive) throughout.

`CC[C@@]1(O)C(=O)OCc2c1cc1n(c2=O)Cc2c-1nc1ccccc1c2/C=N\NC(=O)C(N)=O`: the GI50 was 0.222 µM (active) in [1]; 0.0398 µM (active) in assay [2]; 0.333 µM (active) in assay [3]; 0.0736 µM (active) in [4]; 0.505 µM (active) in assay [5]; 0.208 µM (active) in assay [6]. In addition, the GI50 in [7] was 0.219 µM (active); in assay [8], 0.0383 µM (active); in assay [9] it was 18.3 µM (inactive); in assay [10], 1.42 µM (inactive); in assay [11], > 50.1 µM (inactive); in assay [12], 0.172 µM (active). The GI50 in assay [13] is 19.5 µM (inactive); in assay [14], 0.107 µM (active); in assay [15], 3.04 µM (inactive); in [16], 0.859 µM (active); in assay [17], < 0.0138 µM (active); in assay [18], 17.8 µM (inactive). Further, the GI50 in assay [19] is < 0.0292 µM (active); in [20], 2.25 µM (inactive).

On to `COC1=C(NC(C)=O)C(=O)c2nc3n(c2C1=O)CCC3`, for which the GI50 in assay [1] is 13.2 µM (inactive); in [2], 23.8 µM (inactive); in [3] it was 22.5 µM (inactive); in [4], 20.8 µM (inactive); in [5] it was 26.7 µM (inactive); in assay [6] it was 18.2 µM (inactive). In addition, the GI50 in assay [7] was 26.7 µM (inactive); in assay [8], 26.7 µM (inactive); in assay [9] it was 15.7 µM (inactive); in [10] it was 20.9 µM (inactive); in assay [11] it was 21.4 µM (inactive); in assay [12], 17.9 µM (inactive). In addition, the GI50 in [13] was 19.5 µM (inactive); in assay [14], 20.7 µM (inactive); in [15], 17.7 µM (inactive); in [16], 27.3 µM (inactive); in [17], 4.06 µM (inactive); in assay [18] it was 18.7 µM (inactive). The GI50 in [19] was 17.7 µM (inactive); in assay [20], 23.7 µM (inactive).

`CCC/C(Cl)=N/OC(=O)Nc1cccc(F)c1`: the GI50 is 1.6 µM (inactive) in [1]; 17.3 µM (inactive) in assay [2]; 0.309 µM (active) in assay [3]; 17.5 µM (inactive) in assay [4]; 1.08 µM (active) in [5]; 3.94 µM (inactive) in [6]. Besides, the GI50 in assay [7] is 14.6 µM (inactive); in [8] it was 17.9 µM (inactive); in assay [9], 2.61 µM (inactive); in [10], 1.8 µM (inactive); in [11] it was 2.19 µM (inactive); in assay [12], 6.75 µM (inactive). In addition, the GI50 in assay [13] was 2.46 µM (inactive); in assay [14] it was 16.4 µM (inactive); in assay [15], 3.23 µM (inactive); in assay [16] it was 19.1 µM (inactive); in [17], 1.89 µM (inactive); in assay [18], 5.12 µM (inactive). Also, the GI50 was 21.7 µM (inactive) in assay [19] and 15.6 µM (inactive) in [20].
